Like-named read-outs stand apart in the source and are kept apart here. Where only a bound is given, the exact number is not on record here.

For data set [1], the target named is T1, 11β-HSD1 (Homo sapiens, UniProt P28845).
T1 construct: expressed in transfected cells; host or cells: HEK 293 (stably transfected, HEK 293/HSD11B1)
Put plainly: 11β-HSD1 HEK assay (cell based assay, SPA). Here is the method: 11β-HSD1 HEK Assay Protocol (Cell Based Assay)
11β-HSD1 activity is measured in whole HEK 293 cells stably transfected with the HSD11B1 gene. Cells are incubated in 96-well microplates in the presence of tritiated substrate. Enzyme activity is determined by measuring the amount of tritated product by scintillation proximity assay (SPA). Assay plates contain internal high and low controls to allow calculation of percentage inhibition.
1. […] 2. When the cells are 80% confluent the medium is removed from each well. 100 μl fresh, serum-free, medium containing ^3H-cortisone and test compound in 1% DMSO is added to each well*. Control wells are also dispensed. […] 3. The plate is incubated at 37° C. for the required time period. 4. 50 μl of media is removed from each well and transferred to a microplate containing 100 μl of a pre-incubated mixture of anti-cortisol antibody and SPA bead. The mixture is incubated with gentle shaking until equilibrium is reached, before transferring to a scintillation counter to establish the enzyme activity in each sample.
10 μl of compound is dispensed into each well of a 96-well microplate in 10% DMSO at 100 μM concentration. 90 μl media containing ^3H-cortisone is added to each well. The compound/media/substrate mixture is then transferred to the assay plate containing the cells. […]

Setting [2] is: HEK293, at 1 μM, whole HEK 293 cells stably transfected with the HSD11B1 gene, 3H-cortisone substrate, read-out: Activity (inhibition of 11β-HSD1).
The mark [3] stands for this setting: HEK293, read-out: Activity (inhibition of 11β-HSD1).

T1 sequence (P28845 whole entry): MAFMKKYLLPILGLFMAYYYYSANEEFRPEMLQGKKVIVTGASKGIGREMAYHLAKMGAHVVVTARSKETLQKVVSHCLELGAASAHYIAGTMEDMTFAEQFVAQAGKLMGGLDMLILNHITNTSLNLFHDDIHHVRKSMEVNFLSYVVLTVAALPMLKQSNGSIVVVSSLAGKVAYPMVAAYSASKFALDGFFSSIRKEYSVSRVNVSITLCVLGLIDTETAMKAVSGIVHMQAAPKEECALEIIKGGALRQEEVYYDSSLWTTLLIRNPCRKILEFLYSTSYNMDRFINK

For `O=C(CSc1ccc(C(F)(F)F)cn1)C12CC3CC(CC(C3)C1)C2` [Example 66, 1-Adamantan-1-yl-2-(5-trifluoromethyl-pyridin-2-ylsulfanyl)-ethanone], the melting point lay in the range of 141 to 142 °C. For the same compound, the inhibition at 1 µM in data set [1] (setting [2]) was greater than 60%.

`O=C(C[S+]([O-])Cc1cccnc1)C12CC3CC(CC(C3)C1)C2` (centres unmarked) [Example 8, 1-Adamantan-1-yl-2-(pyridin-3-ylmethanesulfinyl)-ethanone] had a melting point of 116 to 119 °C. The inhibition at 1 µM in data set [1] (setting [2]) is greater than 60%.

Compound `O=C(C[S+]([O-])Cc1ccncc1)C12CC3CC(CC(C3)C1)C2` (centres unmarked) [Example 84, 1-Adamantan-1-yl-2-(pyridin-4-ylmethanesulfinyl)-ethanone] showed a melting point of 119 to 123 °C. The inhibition at 1 µM in data set [1] (setting [2]) is greater than 60%.

On to `O=C(/C=C/c1cccnc1)C12CC3CC(CC(C3)C1)C2` [Example 38, 1-Adamantan-1-yl-3-pyridin-3-yl-propenone], for which the melting point fell in the range of 107 to 108.5 °C. The inhibition at 1 µM in data set [1] (setting [2]) was greater than 60%.

Regarding `O=C(CS(=O)(=O)Cc1ccc(Cl)nc1)C12CC3CC(CC(C3)C1)C2` [Example 64, 1-Adamantan-1-yl-2-(6-chloro-pyridin-3-ylmethanesulfonyl)-ethanone], the melting point lay within 159 to 161 °C. Further, the inhibition at 1 µM in data set [1] (setting [2]) was greater than 60%.

Take `CNC(=O)c1ccc(SCC(=O)C23CC4CC(CC(C4)C2)C3)nc1` [Example 36, 6-(2-Adamantan-1-yl-2-oxo-ethylsulfanyl)-N-methyl-nicotinamide]: the melting point was 184 to 185.5 °C. Also, the inhibition at 1 µM in data set [1] (setting [2]) was greater than 60%.

Turning to `O=C(CSCc1cccnc1)C12CC3CC(CC(C3)C1)C2` [Example 7, 1-Adamantan-1-yl-2-(pyridin-3-ylmethylsulfanyl)-ethanone], the melting point was 45 to 47 °C. Moreover, the inhibition at 1 µM in data set [1] (setting [2]) was greater than 60%.

`CCNC(=O)c1ccc(SCC(=O)C23CC4CC(CC(C4)C2)C3)nc1` [Example 34, 6-{[2-(adamantan-1-yl)-2-oxoethyl]sulfanyl}-N-ethylpyridine-3-carboxamide] returned a melting point of 135.5 to 137 °C. In addition, the inhibition at 1 µM in data set [1] (setting [2]) was greater than 60%.

In the case of `O=C(COc1cccnc1)C12CC3CC(CC(C3)C1)C2` [Example 61, 1-Adamantan-1-yl-2-(pyridin-3-yloxy)-ethanone], the melting point was 73 to 75 °C. Further, the inhibition at 1 µM in data set [1] (setting [2]) was greater than 60%.

Consider `Cc1nnc(SCC(=O)C23CC4CC(CC(C4)C2)C3)s1` [Example 78, 1-Adamantan-1-yl-2-(5-methyl-[1,3,4]thiadiazol-2-ylsulfanyl)-ethanone], for which the melting point lay in the range of 102 to 105 °C. For the same compound, the inhibition at 1 µM in data set [1] (setting [3]) is greater than 60%.

Compound `O=C(Nc1nnc(S(=O)(=O)CC(=O)C23CC4CC(CC(C4)C2)C3)s1)C1CC1` [Example 97, N-(5-{[2-(Adamantan-1-yl)-2-oxoethane]sulfonyl}-1,3,4-thiadiazol-2-yl)cyclopropanecarboxamide] registered a melting point of 209 to 211 °C. Further, the inhibition at 1 µM in data set [1] (setting [2]) is greater than 60%.

In turn, `O=C(O)c1ccc(SCC(=O)C23CC4CC(CC(C4)C2)C3)nc1` [Example 29, 6-(2-Adamantan-1-yl-2-oxo-ethylsulfanyl)-nicotinic acid] registered a melting point of 174 to 176 °C. Also, in data set [1] (setting [2]), the inhibition at 1 µM was greater than 60%.

`Cn1cnnc1[S+]([O-])CC(=O)C12CC3CC(CC(C3)C1)C2` (centres unmarked) [Example 63, 1-Adamantan-1-yl-2-(4-methyl-4H-[1,2,4]triazole-3-sulfinyl)-ethanone] returned a melting point of 124.5 to 127 °C. For the same compound, the inhibition at 1 µM in data set [1] (setting [2]) was greater than 60%.

The compound `O=C(CS(=O)(=O)c1ccncc1)C12CC3CC(CC(C3)C1)C2` [Example 32, 1-(adamantan-1-yl)-2-(pyridine-4-sulfonyl)ethan-1-one] gave a melting point of 143 to 144 °C. In addition, in data set [1] (setting [2]), the inhibition at 1 µM is greater than 60%.

`CN(C)C(=O)c1ccc(SCC(=O)C23CC4CC(CC(C4)C2)C3)nc1` [Example 35, 6-(2-Adamantan-1-yl-2-oxo-ethylsulfanyl)-N,N-dimethyl-nicotinamide] showed a melting point of 62.5 to 64.5 °C. The inhibition at 1 µM in data set [1] (setting [2]) is greater than 60%.

For `Cn1ccnc1[S+]([O-])CC(=O)C1(c2ccc(Cl)cc2)CC1` (centres unmarked) [Example 2, 1-[1-(4-Chloro-phenyl)-cyclopropyl]-2-(1-methyl-1H-imidazole-2-sulfinyl)-ethanone], in data set [1] (setting [2]), the inhibition at 1 µM was less than 20%.

For the compound `O=C(COCc1ccccn1)C1(c2ccc(Cl)cc2)CCC1` [Example 42, 1-[1-(4-Chloro-phenyl)-cyclobutyl]-2-(pyridin-2-ylmethoxy)-ethanone], in data set [1] (setting [2]), the inhibition at 1 µM is less than 20%.

Turning to `Cn1ccnc1S(=O)(=O)CC(=O)C1(c2ccc(Cl)cc2)CCCCC1` [Example 45, 1-[1-(4-Chloro-phenyl)-cyclohexyl]-2-(1-methyl-H-imidazole-2-sulfonyl)-ethanone], in data set [1] (at 1 μM, whole HEK 293 cells stably transfected with the HSD11B1 gene, 3H-cortisone substrate), the “Activity (inhibition of 11β-HSD1)” value was “b (from 20 to 60% inhibition of 11β-HSD1 at 1 μM)”.

On to `O=C(C[S+]([O-])c1ccncc1)C12CC3CC(CC(C3)C1)C2` (centres unmarked) [Example 33, 1-(adamantan-1-yl)-2-(pyridine-4-sulfinyl)ethan-1-one], for which, in data set [1] (setting [2]), the inhibition at 1 µM is greater than 60%.

On to `Cc1nnc([S+]([O-])CC(=O)C23CC4CC(CC(C4)C2)C3)s1` (centres unmarked) [Example 80, 1-Adamantan-1-yl-2-(5-methyl-[1,3,4]thiadiazole-2-sulfinyl)-ethanone], for which the inhibition at 1 µM in data set [1] (setting [2]) is greater than 60%.

Turning to `Cc1nnc(S(=O)(=O)CC(=O)C23CC4CC(CC(C4)C2)C3)s1` [Example 79, 1-Adamantan-1-yl-2-(5-methyl-[1,3,4]thiadiazole-2-sulfonyl)-ethanone], in data set [1] (setting [3]), the inhibition at 1 µM was greater than 60%.

As for `Cn1cnnc1SCC(=O)C1(c2ccc(Cl)cc2)CCC1` [Example 108, 1-(1-(4-Chlorophenyl)cyclobutyl)-2-(4-methyl-4H-1,2,4-triazol-3-ylthio)ethanone], in data set [1] (setting [2]), the inhibition at 1 µM lay in the range of 20 to 60%.

For the compound `Cc1cc(C)c(C(=O)CS(=O)(=O)c2ccccn2)c(C)c1` [Example 75, 2-(Pyridine-2-sulfonyl)-1-(2,4,6-trimethyl-phenyl)-ethanone], in data set [1] (setting [2]), the inhibition at 1 µM is less than 20%.

In the case of `Cn1ccnc1[S+]([O-])CC(=O)C1(c2ccc(Cl)cc2)CCCC1` (centres unmarked) [Example 44, 1-[1-(4-Chloro-phenyl)-cyclopentyl]-2-(1-methyl-1H-imidazole-2-sulfinyl)-ethanone], the inhibition at 1 µM in data set [1] (setting [2]) was in the range of 20 to 60%.

For the compound `O=C(C[S+]([O-])c1ccccn1)C1(c2ccc(Cl)cc2)CC1` (centres unmarked) [Example 5, 1-[1-(4-Chloro-phenyl)-cyclopropyl]-2-(pyridine-2-sulfinyl)-ethanone], the inhibition at 1 µM in data set [1] (setting [2]) was 20 to 60%.

On to `O=C(COc1cccc(Cl)n1)C12CC3CC(CC(C3)C1)C2` [Example 58, 1-Adamantan-1-yl-2-(6-chloro-pyridin-2-yloxy)-ethanone], for which, in data set [1] (setting [2]), the inhibition at 1 µM was 20 to 60%.

Regarding `Cc1cc(C)c(C(=O)COc2cccnc2)c(C)c1` [Example 72, 2-(Pyridin-3-yloxy)-1-(2,4,6-trimethyl-phenyl)-ethanone], the inhibition at 1 µM in data set [1] (setting [2]) was less than 20%.

For the compound `O=C(C[S+]([O-])Cc1ccc(Cl)nc1)C12CC3CC(CC(C3)C1)C2` (centres unmarked) [Example 65, 1-Adamantan-1-yl-2-(6-chloro-pyridin-3-ylmethanesulfinyl)-ethanone], the inhibition at 1 µM in data set [1] (setting [2]) is greater than 60%.

Consider `COc1ccncc1COCC(=O)C12CC3CC(CC(C3)C1)C2` [Example 85, 2-((4-methoxypyridin-3-yl)methoxy)-1-adamantylethanone], for which the inhibition at 1 µM in data set [1] (setting [2]) is greater than 60%.

The record behind these values is US20110112151A1, “COMPOUND CAPABLE OF INHIBITING 11-BETA HYDROXYSTERIOD DEHYDROGENASE” (priority 2008, published 2011).
